Results published in ChEMBL document CHEMBL3351753, “Inhibitory effects of ginseng sapogenins on the proliferation of triple negative breast cancer MDA-MB-231 cells” (Bioorg Med Chem Lett, 2014).
Active and inactive are the calls of the source. No cut-off for these calls is given here.

How the values were obtained:
MDA-MB-231 [1] = assay: Antiproliferative activity against human MDA-MB-231 cells after 4 hrs by MTT assay; assay type: functional, cell-based; conditions: MDA-MB-231, 4 h
LLC-PK1 = assay: Cytotoxicity against pig LLC-PK1 cells after 4 hrs by MTT assay; assay type: cell-based; conditions: Sus scrofa, LLC-PK1, 4 h
MDA-MB-231 [2] = assay: Induction of apoptosis in human MDA-MB-231 cells assessed as increase in cells at early apoptotic phase at 2.5 uM after 24 hrs by annexin-V-FITC/propidium iodide staining- based flow cytometric analysis (reference value: 4.76%); assay type: functional
MDA-MB-231 [3] = assay: Induction of apoptosis in human MDA-MB-231 cells assessed as increase in expression of cleaved caspase 8 at 2.5 to 5.8 uM after 24 hrs by SDS-polyactylamide gel electrophoresis; assay type: functional, cell-based
MDA-MB-231 [4] = assay: Induction of apoptosis in human MDA-MB-231 cells assessed as increase in expression of cleaved caspase 3 at 2.5 to 5.8 uM after 24 hrs by SDS-polyactylamide gel electrophoresis; assay type: functional, cell-based
MDA-MB-231 [5] = assay: Induction of apoptosis in human MDA-MB-231 cells assessed as increase in expression of cleaved PARP at 2.5 to 5.8 uM after 24 hrs by SDS-polyactylamide gel electrophoresis; assay type: functional, cell-based
MDA-MB-231 [6] = assay: Induction of apoptosis in human MDA-MB-231 cells assessed as decrease in expression of full-length BID at 2.5 to 5.8 uM after 24 hrs by SDS-polyactylamide gel electrophoresis; assay type: functional, cell-based

Q: With CC(C)CCC[C@](C)(O)[C@H]1CC[C@]2(C)[C@@H]1[C@H](O)C[C@@H]1[C@@]3(C)CC[C@H](O)C(C)(C)[C@@H]3CC[C@]12C as the compound, how does the IC50 (MDA-MB-231 [1]) read?
A: 27 µM

Q: How did the IC50 (MDA-MB-231 [1]) turn out when CC(=O)O[C@H]1C(=O)[C@@]2(C)[C@H]([C@H](OC(=O)c3ccccc3)[C@]3(O)C[C@H](OC(=O)[C@H](O)[C@@H](NC(=O)c4ccccc4)c4ccccc4)C(C)=C1C3(C)C)[C@]1(OC(C)=O)CO[C@@H]1C[C@@H]2O [PACLITAXEL] was run?
A: 6.2 µM

Q: Which IC50 (MDA-MB-231 [1]) does the source give for COc1cccc2c1C(=O)c1c(O)c3c(c(O)c1C2=O)C[C@@](O)(C(=O)CO)C[C@@H]3O[C@H]1C[C@H](N)[C@H](O)[C@H](C)O1 [DOXORUBICIN] here?
A: 2.9 µM

Q: Which IC50 (MDA-MB-231 [1]) does the source give for CC(C)=CCC[C@](C)(O)[C@H]1CC[C@]2(C)[C@@H]1[C@H](O)C[C@@H]1[C@@]3(C)CC[C@H](O)C(C)(C)[C@@H]3CC[C@]12C here?
A: 5.9 µM

Q: And the IC50 (LLC-PK1)?
A: 36.7 µM

Q: And the Activity (MDA-MB-231 [2])?
A: 8.18%

Q: What about the Activity (MDA-MB-231 [3]) of the same compound?
A: Active

Q: What about the Activity (MDA-MB-231 [4]) of the same compound?
A: Active

Q: And the Activity (MDA-MB-231 [5])?
A: Active

Q: What about the Activity (MDA-MB-231 [6]) of the same compound?
A: Active

Q: Which IC50 (MDA-MB-231 [1]) does the source give for CC(C)CCC[C@](C)(O)[C@H]1CC[C@]2(C)[C@@H]1[C@H](O)C[C@@H]1[C@@]3(C)CC[C@H](O)C(C)(C)[C@@H]3[C@@H](O)C[C@]12C here?
A: 25.8 µM

Q: CC(C)=CCC[C@](C)(O)[C@H]1CC[C@]2(C)[C@@H]1[C@H](O)C[C@@H]1[C@@]3(C)CC[C@H](O)C(C)(C)[C@@H]3[C@@H](O)C[C@]12C was tested. Which IC50 (MDA-MB-231 [1]) did it give?
A: 12.2 µM

Q: How did the IC50 (MDA-MB-231 [1]) turn out when O=C(O[C@@H]1Cc2c(O)cc(O)cc2O[C@@H]1c1cc(O)c(O)c(O)c1)c1cc(O)c(O)c(O)c1 [EPIGALOCATECHIN GALLATE] was run?
A: 76.1 µM

Q: How did the IC50 (MDA-MB-231 [1]) turn out when COc1cc(/C=C/C(=O)CC(=O)/C=C/c2ccc(O)c(OC)c2)ccc1O [CURCUMIN] was run?
A: 34.4 µM
